{"source": "paper PMC11651915", "about": "“Small molecule protein assembly modulators with pan-cancer therapeutic efficacy” (Open Biology, 2024)", "key": {"BFTC-905": {"system": "BFTC-905", "assay": "Eurofins OncoPanel (CellTiter-Glo)", "type": "cell-based", "settings": "Homo sapiens, 72 h, 3 days"}, "COR-L105": {"system": "COR-L105", "assay": "Eurofins OncoPanel (CellTiter-Glo)", "type": "cell-based", "settings": "Homo sapiens, 72 h, 3 days"}, "SK-MEL-2": {"system": "SK-MEL-2", "assay": "cells", "settings": "Homo sapiens, SK-MEL-2, 48 h"}, "HL-60(TB)": {"system": "HL-60(TB)", "assay": "cells", "settings": "Homo sapiens, HL-60, 48 h"}, "RPMI-8226": {"system": "RPMI-8226", "assay": "cells", "type": "cell-based", "settings": "Homo sapiens, NCI-60, 48 h"}, "[1]": {"system": "A549 human lung cancer xenograft", "settings": "mouse, in vivo"}, "MDA-MB-231/ATCC": {"system": "MDA-MB-231/ATCC", "assay": "cells", "settings": "Homo sapiens, MDA-MB-231, 48 h"}, "SF-539": {"system": "SF-539", "assay": "cells", "settings": "Homo sapiens, SF-539, 48 h"}, "[2]": {"system": "BB1 patient biopsy derived cell line (benign adenoma)", "assay": "BB1 and BB5 adenoma versus carcinoma screen (confocal imaging)", "type": "cell-based, human", "settings": "Homo sapiens, 60 h, percent ChromaLive negative"}, "HOP-92": {"system": "HOP-92", "assay": "cells", "settings": "Homo sapiens, HOP-92, 48 h"}, "FaDu": {"system": "FaDu", "assay": "Eurofins OncoPanel (CellTiter-Glo)", "type": "cell-based", "settings": "Homo sapiens, 72 h, 3 days"}, "in vivo": {"assay": "in vivo", "settings": "female, Balb/c, mouse, ip"}, "SNB-19": {"system": "SNB-19", "assay": "cells", "settings": "Homo sapiens, SNB-19, 48 h"}, "HS 578T": {"system": "HS 578T", "assay": "cells", "settings": "Homo sapiens, 48 h"}, "H9": {"system": "H9", "assay": "Eurofins OncoPanel (CellTiter-Glo)", "type": "cell-based", "settings": "Homo sapiens, 72 h, 3 days"}, "BT-549": {"system": "BT-549", "assay": "cells", "settings": "Homo sapiens, BT-549, 48 h"}, "SK-MEL-5": {"system": "SK-MEL-5", "assay": "cells", "settings": "Homo sapiens, SK-MEL-5, 48 h"}, "SW1353": {"system": "SW1353", "assay": "Eurofins OncoPanel (CellTiter-Glo)", "type": "cell-based", "settings": "Homo sapiens, 72 h, 3 days"}, "SK-OV-3": {"system": "SK-OV-3", "assay": "cells", "settings": "Homo sapiens, SK-OV-3, 48 h"}, "NL4-3 Rluc HIV": {"system": "NL4-3 Rluc HIV", "assay": "microbe, parasite or virus in culture", "type": "cell-based", "settings": "Human immunodeficiency virus 1, NL43, MT2, 96 h, read-out: EC50 against HIV"}, "SR": {"system": "SR", "assay": "cells", "settings": "Homo sapiens, 48 h"}, "SF-295": {"system": "SF-295", "assay": "cells", "settings": "Homo sapiens, SF-295, 48 h"}, "HT-29": {"system": "HT-29", "assay": "In-house cancer cell viability screen (AlamarBlue)", "type": "cell-based", "settings": "Homo sapiens, 72 h"}, "OVCAR-5": {"system": "OVCAR-5", "assay": "cells", "settings": "Homo sapiens, OVCAR-5, 48 h"}, "K-562": {"system": "K-562", "assay": "cells", "type": "cell-based", "settings": "Homo sapiens, K562, NCI-60, 48 h"}, "OVCAR-3": {"system": "OVCAR-3", "assay": "cells", "settings": "Homo sapiens, OVCAR-3, 48 h"}, "[3]": {"system": "A549 human lung cancer xenograft", "assay": "A549 xenograft studies", "settings": "A549 xenograft, PAV-951 study, 14 days, IV; PAV-951 1.5 mg kg^−1 once daily, Gemcitabine 100 mg kg^−1 twice weekly"}, "DU-145": {"system": "DU-145", "assay": "cells", "settings": "Homo sapiens, DU-145, 48 h"}, "TK-10": {"system": "TK-10", "assay": "cells", "settings": "Homo sapiens, TK-10, 48 h"}, "A549": {"system": "A549", "assay": "In-house cancer cell viability screen (AlamarBlue)", "type": "cell-based, human", "settings": "for IC50: Homo sapiens, AlamarBlue"}, "SK-MEL-28": {"system": "SK-MEL-28", "assay": "cells", "settings": "Homo sapiens, SK-MEL-28, 48 h"}, "NCI-H226": {"system": "NCI-H226", "assay": "cells", "settings": "Homo sapiens, NCI-H226, 48 h"}, "MCF7": {"system": "MCF7", "assay": "Eurofins OncoPanel (CellTiter-Glo)", "type": "cell-based", "settings": "Homo sapiens, 72 h, 3 days"}, "SF-268": {"system": "SF-268", "assay": "cells", "settings": "Homo sapiens, SF-268, 48 h"}, "NCI-H322M": {"system": "NCI-H322M", "assay": "cells", "settings": "Homo sapiens, 48 h"}, "U2OS": {"system": "U2OS", "assay": "Eurofins OncoPanel (CellTiter-Glo)", "type": "cell-based", "settings": "Homo sapiens, 72 h, 3 days"}, "ACHN": {"system": "ACHN", "assay": "cells", "settings": "Homo sapiens, 48 h"}, "KM12": {"system": "KM12", "assay": "cells", "settings": "Homo sapiens, KM12, 48 h"}, "HOP-62": {"system": "HOP-62", "assay": "cells", "type": "cell-based", "settings": "Homo sapiens, NCI-60, 48 h"}, "NCI-H522": {"system": "NCI-H522", "assay": "cells", "settings": "Homo sapiens, NCI-H522, 48 h"}}, "data": [{"molecule": "CC(C)CCNc1ncnc2cc(N3CCN(c4ccc5c(NCCC(C)C)ncnc5c4)CC3)ccc12", "note": "[PAV-951]", "values": [{"measurement": "IC50", "setting": "BFTC-905", "value": 701, "unit": "nM"}, {"measurement": "IC50", "setting": "COR-L105", "value": 962, "unit": "nM"}, {"measurement": "GI50", "setting": "SK-MEL-2", "value": 1650, "unit": "nM"}, {"measurement": "CC50", "setting": "SK-MEL-2; read-out: LC50", "value": 5910, "unit": "nM"}, {"measurement": "GI50", "setting": "HL-60(TB)", "value": 269, "unit": "nM"}, {"measurement": "GI50", "setting": "RPMI-8226", "value": 213, "unit": "nM"}, {"measurement": "adverse effects at the doses of the xenograft studies", "setting": "[1]", "value": "without any serious adverse effects"}, {"measurement": "GI50", "setting": "MDA-MB-231/ATCC", "value": 488, "unit": "nM"}, {"measurement": "CC50", "setting": "MDA-MB-231/ATCC; read-out: LC50", "value": 4420, "unit": "nM"}, {"measurement": "GI50", "setting": "SF-539", "value": 683, "unit": "nM"}, {"measurement": "CC50", "setting": "SF-539; read-out: LC50", "value": 4530, "unit": "nM"}, {"measurement": "IC50", "setting": "[2]", "value": 3350, "unit": "nM"}, {"measurement": "GI50", "setting": "HOP-92", "value": 1230, "unit": "nM"}, {"measurement": "CC50", "setting": "HOP-92; read-out: LC50", "value": 6220, "unit": "nM"}, {"measurement": "IC50", "setting": "FaDu", "value": 523, "unit": "nM"}, {"measurement": "MTD", "setting": "in vivo", "value": 2.5, "unit": "mg/kg"}, {"measurement": "GI50", "setting": "SNB-19", "value": 1170, "unit": "nM"}, {"measurement": "CC50", "setting": "SNB-19; read-out: LC50", "value": 5180, "unit": "nM"}, {"measurement": "GI50", "setting": "HS 578T", "value": 352, "unit": "nM"}, {"measurement": "CC50", "setting": "HS 578T; read-out: LC50", "value": "> 100000", "unit": "nM"}, {"measurement": "IC50", "setting": "H9", "value": 165, "unit": "nM"}, {"measurement": "GI50", "setting": "BT-549", "value": 1590, "unit": "nM"}, {"measurement": "CC50", "setting": "BT-549; read-out: LC50", "value": 6040, "unit": "nM"}, {"measurement": "GI50", "setting": "SK-MEL-5", "value": 1870, "unit": "nM"}, {"measurement": "CC50", "setting": "SK-MEL-5; read-out: LC50", "value": 9120, "unit": "nM"}, {"measurement": "IC50", "setting": "SW1353", "value": 2210, "unit": "nM"}, {"measurement": "GI50", "setting": "SK-OV-3", "value": 1550, "unit": "nM"}, {"measurement": "CC50", "setting": "SK-OV-3; read-out: LC50", "value": 6340, "unit": "nM"}, {"measurement": "EC50", "setting": "NL4-3 Rluc HIV", "value": 660, "unit": "nM"}, {"measurement": "GI50", "setting": "SR", "value": 51.9, "unit": "nM"}, {"measurement": "CC50", "setting": "SR; read-out: LC50", "value": 1900, "unit": "nM"}, {"measurement": "GI50", "setting": "SF-295", "value": 1640, "unit": "nM"}, {"measurement": "CC50", "setting": "SF-295; read-out: LC50", "value": 5590, "unit": "nM"}, {"measurement": "IC50", "setting": "HT-29", "value": 101, "unit": "nM"}, {"measurement": "GI50", "setting": "OVCAR-5", "value": 1080, "unit": "nM"}, {"measurement": "CC50", "setting": "OVCAR-5; read-out: LC50", "value": 4830, "unit": "nM"}, {"measurement": "GI50", "setting": "K-562", "value": 131, "unit": "nM"}, {"measurement": "GI50", "setting": "OVCAR-3", "value": 1050, "unit": "nM"}, {"measurement": "CC50", "setting": "OVCAR-3; read-out: LC50", "value": 4790, "unit": "nM"}, {"measurement": "tumour growth inhibition (TGI)", "setting": "[3]", "value": 72, "unit": "%"}, {"measurement": "GI50", "setting": "DU-145", "value": 283, "unit": "nM"}, {"measurement": "CC50", "setting": "DU-145; read-out: LC50", "value": 2830, "unit": "nM"}, {"measurement": "GI50", "setting": "TK-10", "value": 2160, "unit": "nM"}, {"measurement": "CC50", "setting": "TK-10; read-out: LC50", "value": 6140, "unit": "nM"}, {"measurement": "change of potency when compound is added at the time of plating rather than 24 h later", "setting": "A549; A549", "value": "increased significantly"}, {"measurement": "IC50", "setting": "A549; A549 (treatment 0 h after plating)", "value": 2160, "unit": "nM"}, {"measurement": "IC50", "setting": "A549; A549 (treatment 24 h after plating), 72 h", "value": 10900, "unit": "nM"}, {"measurement": "GI50", "setting": "SK-MEL-28", "value": 1330, "unit": "nM"}, {"measurement": "CC50", "setting": "SK-MEL-28; read-out: LC50", "value": 5240, "unit": "nM"}, {"measurement": "GI50", "setting": "NCI-H226", "value": 1760, "unit": "nM"}, {"measurement": "CC50", "setting": "NCI-H226; read-out: LC50", "value": 6810, "unit": "nM"}, {"measurement": "IC50", "setting": "MCF7", "value": 1990, "unit": "nM"}, {"measurement": "GI50", "setting": "SF-268", "value": 217, "unit": "nM"}, {"measurement": "CC50", "setting": "SF-268; read-out: LC50", "value": 2010, "unit": "nM"}, {"measurement": "GI50", "setting": "NCI-H322M", "value": 1200, "unit": "nM"}, {"measurement": "CC50", "setting": "NCI-H322M; read-out: LC50", "value": 5550, "unit": "nM"}, {"measurement": "IC50", "setting": "U2OS", "value": 368, "unit": "nM"}, {"measurement": "GI50", "setting": "ACHN", "value": 586, "unit": "nM"}, {"measurement": "CC50", "setting": "ACHN; read-out: LC50", "value": 4280, "unit": "nM"}, {"measurement": "GI50", "setting": "KM12", "value": 227, "unit": "nM"}, {"measurement": "CC50", "setting": "KM12; read-out: LC50", "value": 3850, "unit": "nM"}, {"measurement": "GI50", "setting": "HOP-62", "value": 358, "unit": "nM"}, {"measurement": "GI50", "setting": "NCI-H522", "value": 1770, "unit": "nM"}, {"measurement": "CC50", "setting": "NCI-H522; read-out: LC50", "value": 6950, "unit": "nM"}]}]}
